In ChEMBL document CHEMBL2429805, “Studies toward the development of new silicon-containing building blocks for the direct (18)F-labeling of peptides” (J Med Chem, 2013):

How the values were obtained:
[1] = test system: Bone; assay: Biodistribution in bone of NMRI nude mouse xenografted with human PC3 cells at 8.3 to 15.3 MBq after 60 to 105 mins by PET imaging analysis; type: ADME, organism-based, Bone element, PC-3; settings: in vivo
[2] = test system: Mus musculus; assay: Biodistribution in urinary bladder of NMRI nude mouse xenografted with human PC3 cells at 8.3 to 15.3 MBq after 60 to 105 mins by PET imaging analysis; type: ADME, organism-based, PC-3; settings: in vivo
[3] = test system: Mus musculus; assay: Biodistribution in abdominal region of NMRI nude mouse xenografted with human PC3 cells at 8.3 to 15.3 MBq after 60 to 105 mins by PET imaging analysis; type: ADME, organism-based, Abdomen, PC-3; settings: in vivo
[4] = Ratio of biodistribution in tumor to blood of NMRI nude mouse xenografted with human PC3 cells at 4.8 to 10.5 MBq after 117 mins by gamma-counting analysis in presence of bombesin; type: ADME, organism-based, PC-3; settings: tumour, 1.95 h
[5] = test system: Spleen; assay: Biodistribution in spleen of NMRI nude mouse xenografted with human PC3 cells at 4.8 to 10.5 MBq after 117 mins by gamma-counting analysis in presence of bombesin; type: ADME, organism-based, PC-3; settings: in vivo, 1.95 h
[6] = test system: Mus musculus; assay: Biodistribution in gallbladder of NMRI nude mouse xenografted with human PC3 cells at 4.8 to 10.5 MBq after 117 mins by gamma-counting analysis in presence of bombesin; type: ADME, organism-based, Gall bladder, PC-3; settings: in vivo, 1.95 h
[7] = test system: Lung; assay: Biodistribution in lung of NMRI nude mouse xenografted with human PC3 cells at 4.8 to 10.5 MBq after 117 mins by gamma-counting analysis in presence of bombesin; type: ADME, organism-based, PC-3; settings: in vivo, 1.95 h
[8] = test system: Intestine; assay: Biodistribution in intestine of NMRI nude mouse xenografted with human PC3 cells at 4.8 to 10.5 MBq after 117 mins by gamma-counting analysis in presence of bombesin; type: ADME, organism-based, PC-3; settings: in vivo, 1.95 h
[9] = test system: Kidney; assay: Biodistribution in kidney of NMRI nude mouse xenografted with human PC3 cells at 4.8 to 10.5 MBq after 117 mins by gamma-counting analysis in presence of bombesin; type: ADME, organism-based, PC-3; settings: in vivo, 1.95 h
[10] = test system: Liver; assay: Biodistribution in liver of NMRI nude mouse xenografted with human PC3 cells at 4.8 to 10.5 MBq after 117 mins by gamma-counting analysis in presence of bombesin; type: ADME, organism-based, PC-3; settings: in vivo, 1.95 h
[11] = test system: Mus musculus; assay: Biodistribution in prostate of NMRI nude mouse xenografted with human PC3 cells at 4.8 to 10.5 MBq after 117 mins by gamma-counting analysis in presence of bombesin; type: ADME, organism-based, Prostate gland, PC-3; settings: in vivo, 1.95 h
[12] = test system: Pancreas; assay: Biodistribution in pancreas of NMRI nude mouse xenografted with human PC3 cells at 4.8 to 10.5 MBq after 117 mins by gamma-counting analysis in presence of bombesin; type: ADME, organism-based, PC-3; settings: in vivo, 1.95 h
[13] = test system: Blood; assay: Biodistribution in blood of NMRI nude mouse xenografted with human PC3 cells at 4.8 to 10.5 MBq after 117 mins by gamma-counting analysis in presence of bombesin; type: ADME, organism-based, PC-3; settings: in vivo, 1.95 h
[14] = Ratio of biodistribution in tumor to blood of NMRI nude mouse xenografted with human PC3 cells at 8.3 to 15.3 MBq after 117 mins by gamma-counting analysis; type: ADME, organism-based, PC-3; settings: tumour, 1.95 h
[15] = test system: Mus musculus; assay: Biodistribution in tumor of NMRI nude mouse xenografted with human PC3 cells at 4.8 to 10.5 MBq after 117 mins by gamma-counting analysis in presence of bombesin; type: ADME, organism-based, Neoplasm, PC-3; settings: in vivo, 1.95 h
[16] = test system: Spleen; assay: Biodistribution in spleen of NMRI nude mouse xenografted with human PC3 cells at 8.3 to 15.3 MBq after 117 mins by gamma-counting analysis; type: ADME, organism-based, PC-3; settings: in vivo, 1.95 h
[17] = test system: Mus musculus; assay: Biodistribution in gallbladder of NMRI nude mouse xenografted with human PC3 cells at 8.3 to 15.3 MBq after 117 mins by gamma-counting analysis; type: ADME, organism-based, Gall bladder, PC-3; settings: in vivo, 1.95 h
[18] = test system: Lung; assay: Biodistribution in lung of NMRI nude mouse xenografted with human PC3 cells at 8.3 to 15.3 MBq after 117 mins by gamma-counting analysis; type: ADME, organism-based, PC-3; settings: in vivo, 1.95 h
[19] = test system: Intestine; assay: Biodistribution in intestine of NMRI nude mouse xenografted with human PC3 cells at 8.3 to 15.3 MBq after 117 mins by gamma-counting analysis; type: ADME, organism-based, PC-3; settings: in vivo, 1.95 h
[20] = test system: Kidney; assay: Biodistribution in kidney of NMRI nude mouse xenografted with human PC3 cells at 8.3 to 15.3 MBq after 117 mins by gamma-counting analysis; type: ADME, organism-based, PC-3; settings: in vivo, 1.95 h
[21] = test system: Liver; assay: Biodistribution in liver of NMRI nude mouse xenografted with human PC3 cells at 8.3 to 15.3 MBq after 117 mins by gamma-counting analysis; type: ADME, organism-based, PC-3; settings: in vivo, 1.95 h
[22] = test system: Mus musculus; assay: Biodistribution in prostate of NMRI nude mouse xenografted with human PC3 cells at 8.3 to 15.3 MBq after 117 mins by gamma-counting analysis; type: ADME, organism-based, Prostate gland, PC-3; settings: in vivo, 1.95 h
[23] = test system: Blood; assay: Biodistribution in blood of NMRI nude mouse xenografted with human PC3 cells at 8.3 to 15.3 MBq after 117 mins by gamma-counting analysis; type: ADME, organism-based, PC-3; settings: in vivo, 1.95 h
[24] = test system: Pancreas; assay: Biodistribution in pancreas of NMRI nude mouse xenografted with human PC3 cells at 8.3 to 15.3 MBq after 117 mins by gamma-counting analysis; type: ADME, organism-based, PC-3; settings: in vivo, 1.95 h
[25] = test system: Mus musculus; assay: Biodistribution in tumor of NMRI nude mouse xenografted with human PC3 cells at 8.3 to 15.3 MBq after 117 mins by gamma-counting analysis; type: ADME, organism-based, Neoplasm, PC-3; settings: in vivo, 1.95 h
[26] = test system: Mus musculus; assay: Biodistribution in tumor of NMRI nude mouse xenografted with human PC3 cells at 4.8 to 10.5 MBq after 60 to 105 mins by PET imaging analysis in presence of bombesin; type: ADME, organism-based, Neoplasm, PC-3; settings: in vivo
[27] = test system: Mus musculus; assay: Biodistribution in tumor of NMRI nude mouse xenografted with human PC3 cells at 8.3 to 15.3 MBq after 60 to 105 mins by PET imaging analysis; type: ADME, organism-based, Neoplasm, PC-3; settings: in vivo
[28] = Lipophilicity, log D of the compound in 1-octanol/PBS buffer at pH 7.4 after 15 mins by shake flask method; type: physicochemical
[29] = Stability of the compound in PBS buffer up to 2 hrs; type: physicochemical

Structure (SMILES): CC(C)C[C@H](NC(=O)C[C@H](O)[C@H](CC(C)C)NC(=O)[C@H](Cc1cnc[nH]1)NC(=O)CN(C)C(=O)[C@@H](NC(=O)[C@H](C)NC(=O)[C@H](Cc1c[nH]c2ccccc12)NC(=O)[C@H](CCC(N)=O)NC(=O)CCCCNC(=O)[C@H](CS(=O)(=O)O)NC(=O)[C@H](CS(=O)(=O)O)NC(=O)Cc1ccc([Si]([18F])(C(C)(C)C)C(C)(C)C)cc1)C(C)C)C(N)=O
- Drug uptake [1]: Not Active
- Drug uptake [2]: Active
- Drug uptake [3]: Active
- Ratio [4]: 1.1
- Drug uptake [5]: 0.57 % ID/g
- Drug uptake [6]: 236 % ID/g
- Drug uptake [7]: 1.4 % ID/g
- Drug uptake [8]: 16 % ID/g
- Drug uptake [9]: 2.1 % ID/g
- Drug uptake [10]: 5.6 % ID/g
- Drug uptake [11]: 0.7 % ID/g
- Drug uptake [12]: 3.4 % ID/g
- Drug uptake [13]: 1.17 % ID/g
- Ratio [14]: 2
- Drug uptake [15]: 1.24 % ID/g
- Drug uptake [16]: 0.57 % ID/g
- Drug uptake [17]: 194 % ID/g
- Drug uptake [18]: 0.65 % ID/g
- Drug uptake [19]: 21 % ID/g
- Drug uptake [20]: 1.7 % ID/g
- Drug uptake [21]: 4.4 % ID/g
- Drug uptake [22]: 0.37 % ID/g
- Drug uptake [23]: 0.91 % ID/g
- Drug uptake [24]: 10 % ID/g
- Drug uptake [25]: 1.8 % ID/g
- Drug uptake [26]: Active
- Drug uptake [27]: Active
- logD at 0.25 h [28]: 0.3
- Stability [29]: Stable
